Experimental data from ChEMBL document CHEMBL1144506, “Fujita-Ban QSAR analysis and CoMFA study of quinoline antagonists of immunostimulatory CpG-oligodeoxynucleotides” (Bioorg Med Chem, 2007).
Several values for one entry are separate records, joined by “and”; a condition that tells them apart may be missing. Equal entries are not always repeated.

System: WEHI
Experiment: Inhibition of CpG-oligodeoxynucleotides-induced immunostimulation in mouse WEHI 231 cells
Type: functional, cell-based
Settings: Mus musculus, WEHI

| EC50 | Structure (SMILES) |
| --- | --- |
| 14.1 nM | Cc1cccc(-c2cc(NCCC3CCCN3C)c3ccccc3n2)c1 (stereo not drawn) |
| 7.08 nM | CN(C)CCNc1cc(-c2ccc(CN3CCN(C)CC3)cc2)nc2ccccc12 |
| 1 nM | CN(C)CCCNc1cc(-c2ccc(N3CCN(C)CC3)cc2)nc2ccccc12 |
| 17 nM | CCN1CCCC1CNc1cc(-c2ccc(F)cc2)nc2ccccc12 (stereo not drawn) |
| 50.1 nM | Cc1cccc(-c2cc(NCCCN3CCOCC3)c3ccccc3n2)c1 |
| 72.4 nM | Cc1cccc(-c2cc(NCCN(C)C)c3ccccc3n2)c1 |
| 21.9 nM | CCN1CCCC1CNc1cc(-c2ccc(C)cc2)nc2ccccc12 (stereo not drawn) |
| 18.6 nM | CN1CCN(CCNc2cc(-c3ccc(F)cc3)nc3ccccc23)CC1 |
| 67.6 nM | Fc1ccc(-c2cc(NCCCN3CCOCC3)c3ccccc3n2)cc1 |
| 20.9 nM | Fc1ccc(-c2cc(NCCCCN3CCCC3)c3ccccc3n2)cc1 |
| 24 nM | Fc1ccc(-c2cc(NCCN3CCCC3)c3ccccc3n2)cc1 |
| 2.19 nM | CN1CCN(c2ccc(-c3cc(NCCCN4CCOCC4)c4ccccc4n3)cc2)CC1 |
| 6.76 nM | CN1CCN(CCCNc2cc(-c3ccc(CN4CCN(C)CC4)cc3)nc3ccccc23)CC1 |
| 12.3 nM | Cc1ccc(-c2cc(NCCN(C)C)c3ccccc3n2)cc1 |
| 13.2 nM | CN1CCCC1CCNc1cc(-c2ccc(F)cc2)nc2ccccc12 (stereo not drawn) |
| 2 nM | CN1CCN(c2ccc(-c3cc(NCCC4CCCN4C)c4ccccc4n3)cc2)CC1 (stereo not drawn) |
| 27.5 nM | Cc1cccc(-c2cc(NCCCN3CCN(C)CC3)c3ccccc3n2)c1 |
| 5.37 nM | CN(C)CCNc1cc(-c2ccc(N3CCCCC3)cc2)nc2ccccc12 |
| 15.8 nM | CN(C)CCCNc1cc(-c2ccc(N3CCCCC3)cc2)nc2ccccc12 |
| 1.51 nM | CN1CCN(CCNc2cc(-c3ccc(N4CCN(C)CC4)cc3)nc3ccccc23)CC1 |
| 46.8 nM | CN(C)CCCCNc1cc(-c2ccc(N3CCCCC3)cc2)nc2ccccc12 |
| 11.5 nM | Cc1ccc(-c2cc(NCCCN(C)C)c3ccccc3n2)cc1 |
| 13.2 nM | Cc1cccc(-c2cc(NCCCN(C)C)c3ccccc3n2)c1 |
| 7.76 nM | CN1CCN(Cc2cccc(-c3cc(NCCC4CCCN4C)c4ccccc4n3)c2)CC1 (stereo not drawn) |
| 741 nM | CN1CCN(c2cc(-c3ccc4ccccc4c3)nc3ccc(-c4ccccc4)cc23)CC1 |
| 35.5 nM | COc1ccc(-c2cc(NCCN(C)C)c3ccccc3n2)cc1F |

| EC50 | Structure (SMILES) |
| --- | --- |
| 407 nM | CN(C)CCNc1cc(-c2ccc(C(F)(F)F)cc2)nc2ccc(F)cc12 |
| 417 nM | CN(C)CCNc1cc(-c2ccccc2F)nc2ccc(F)cc12 |
| 537 nM | c1cc(CNCCN2CCOCC2)cc(-c2cc(NCCCN3CCCC3)c3ccccc3n2)c1 |
| 646 nM | Cc1ccccc1-c1cc(NCCCN2CCOCC2)c2ccccc2n1 |
| 417 nM | Fc1ccc(-c2cc(NCCN3CCOCC3)c3ccccc3n2)cc1 |
| 550 nM | CN(C)CCNc1cc(-c2cccc(F)c2)nc2cc(C(F)(F)F)ccc12 |
| 3.31 nM | CN1CCN(c2ccc(-c3cc(NCCN4CCOCC4)c4ccccc4n3)cc2)CC1 |
| 3.55 nM | c1ccc2cc(-c3cc(NCCCN4CCOCC4)c4ccccc4n3)ccc2c1 |
| 6.46 nM | CN(C)CCNc1cc(-c2ccc3ccccc3c2)nc2ccc(-c3ccccc3)cc12 |
| 105 nM | Cc1ccc(-c2cc(NCCCN3CCCC3)c3ccccc3n2)cc1 |
| 5.89 nM | CN(C)CCCCNc1cc(-c2ccccc2NCCN(C)C)nc2ccccc12 |
| 646 nM | Cc1cccc(-c2cc(NCCN3CCOCC3)c3ccccc3n2)c1 |
| 6.46 nM | CN(C)CCNc1ccccc1-c1cc(NCCN(C)C)c2ccccc2n1 |
| 151 nM | Cc1ccc(-c2cc(Nc3ccc(O)cc3)c3ccccc3n2)cc1 |
| 162 nM | CN(C)CCNc1cc(-c2ccccc2Cl)nc2ccccc12 |
| 38.9 nM | CN(C)CCNc1cc(-c2ccccc2N2CCN(C)CC2)nc2ccccc12 |
| 407 nM | COc1ccc(-c2cc(NCCN(C)C)c3ccc(C(F)(F)F)cc3n2)cc1F |
| 490 nM | Cc1ccc(-c2cc(NCCN3CCOCC3)c3ccccc3n2)cc1 |
| 107 nM | CN(C)CCCNc1cc(-c2ccccc2F)nc2ccccc12 |
| 1.78 nM | Cc1ccc(-c2cc(Nc3cc(CN4CCCC4)c(O)c(CN4CCCC4)c3)c3ccccc3n2)cc1 |
| 2.04 nM | CN1CCCC1CCNc1cc(-c2ccc3ccccc3c2)nc2ccccc12 (stereo not drawn) |
| 468 nM | CN(C)CCNc1cc(-c2ccccc2Cl)nc2ccc(Cl)cc12 |
| 12 nM | c1cc(CNCCCN2CCOCC2)cc(-c2cc(NCCN3CCOCC3)c3ccccc3n2)c1 |
| 52.5 nM | CN(C)CCCNc1cc(-c2cccc(CNCCCN3CCOCC3)c2)nc2ccccc12 |
| 15.5 nM | CN(C)CCCCCNc1cc(-c2ccc(F)cc2)nc2ccccc12 |
| 2.4 nM | CN1CCN(c2ccc(-c3cc(NCCN4CCCC4)c4ccccc4n3)cc2)CC1 |

| EC50 | Structure (SMILES) |
| --- | --- |
| 5.37 nM | CCN1CCCC1CNc1cc(-c2ccc3ccccc3c2)nc2ccccc12 (stereo not drawn) |
| 13.5 nM | c1ccc2cc(-c3cc(NCCCN4CCCC4)c4ccccc4n3)ccc2c1 |
| 4.9 nM | CN1CCN(CCCCNc2cc(-c3ccc(N4CCN(C)CC4)cc3)nc3ccccc23)CC1 |
| 20.4 nM | CN(C)CCCNc1cc(-c2cccc(CNCCN3CCOCC3)c2)nc2ccccc12 |
| 1.45 nM | CN(C)CCNc1cc(-c2ccc(N3CCN(C)CC3)cc2)nc2ccc(Cl)cc12 |
| 1.91 nM | CN(C)CCCCCCNc1cc(-c2ccc(N3CCN(C)CC3)cc2)nc2ccccc12 |
| 52.5 nM | CN(C)CCNc1cc(-c2ccc(F)cc2)nc2ccc(Cl)cc12 |
| 13.2 nM | CN(C)CCNc1cc(-c2ccccc2N2CCN(C)CC2)nc2ccc(F)cc12 |
| 22.4 nM | CCN(CC)CCNc1cc(-c2cccc(C)c2)nc2ccccc12 |
| 1.23 nM | CN(C)CCCCNc1cc(-c2ccc(N3CCN(C)CC3)cc2)nc2ccccc12 |
| 1.45 nM | Cc1ccc(-c2cc(Nc3cc(CN4CCN(C)CC4)c(O)c(CN4CCN(C)CC4)c3)c3ccccc3n2)cc1 |
| 5.5 nM | CN1CCN(c2ccc(-c3cc(NCCCCN4CCCC4)c4ccccc4n3)cc2)CC1 |
| 100 nM | CN1CCN(Cc2cccc(-c3cc(N4CCN(C)CC4)c4ccccc4n3)c2)CC1 |
| 9.12 nM | CN(C)CCCNc1cc(-c2ccc(CN3CCN(C)CC3)cc2)nc2ccccc12 |
| 18.6 nM | CCN(CC)CCNc1cc(-c2ccc(C)cc2)nc2ccccc12 |
| 26.9 nM | Cc1ccc(-c2cc(NCCCN3CCOCC3)c3ccccc3n2)cc1 |
| 0.759 nM | CN(C)CCNc1cc(-c2ccc(N3CCN(C)CC3)cc2)nc2ccccc12 |
| 3.24 nM | CN1CCN(Cc2ccc(-c3cc(NCCN4CCCC4)c4ccccc4n3)cc2)CC1 |
| 1.45 nM | CN(C)CCCCCNc1cc(-c2ccc(N3CCN(C)CC3)cc2)nc2ccccc12 |
| 1.74 nM | CN1CCN(Cc2cc(Nc3cc(-c4ccc(F)cc4)nc4ccccc34)cc(CN3CCN(C)CC3)c2O)CC1 |
| 21.9 nM | CCN1CCCC1CNc1cc(-c2cccc(C)c2)nc2ccccc12 (stereo not drawn) |
| 13.8 nM | Cc1ccc(-c2cc(NCCCN3CCN(C)CC3)c3ccccc3n2)cc1 |
| 11 nM | CN(C)CCCNc1cc(-c2ccc3ccccc3c2)nc2ccccc12 |
| 1.15 nM | Oc1c(CN2CCCC2)cc(Nc2cc(-c3ccc4ccccc4c3)nc3ccccc23)cc1CN1CCCC1 |
| 51.3 nM | CN(C)CCNc1cc(-c2ccc(F)cc2)nc2ccccc12 |
| 107 nM | CN(C)CCCCNc1cc(-c2ccccc2F)nc2ccccc12 |

| EC50 | Structure (SMILES) |
| --- | --- |
| 204 nM | CN1CCCC1CCNc1cc(-c2ccccc2F)nc2ccccc12 (stereo not drawn) |
| 13.8 nM | Cc1cccc(-c2cc(NCCCCN(C)C)c3ccccc3n2)c1 |
| 525 nM | CN(C)CCCNCc1cccc(-c2cc(NCCCN3CCN(C)CC3)c3ccccc3n2)c1 |
| 132 nM | CN1CCN(c2ccccc2-c2cc(N3CCN(C)CC3)c3ccccc3n2)CC1 |
| 15.8 nM | CN1CCN(CCCCNc2cc(-c3ccc(F)cc3)nc3ccccc23)CC1 |
| 186 nM | Cc1ccccc1-c1cc(NCCCN(C)C)c2ccccc2n1 |
| 490 nM | CN(C)CCNc1cc(-c2ccc(F)cc2)nc2cc(C(F)(F)F)ccc12 |
| 20.4 nM | CN(C)CCCCCCNc1cc(-c2ccc(F)cc2)nc2ccccc12 |
| 3.98 nM | CN(C)CCCNc1cc(-c2cccc(CN3CCN(C)CC3)c2)nc2ccccc12 |
| 191 nM | Fc1ccc(-c2cc(NCCCN3CCCC3)c3ccccc3n2)cc1 |
| 58.9 nM | CN1CCN(Cc2ccc(-c3cc(N4CCN(C)CC4)c4ccccc4n3)cc2)CC1 |
| 282 nM | CN(C)CCNc1cc(-c2cccc(F)c2)nc2ccc(F)cc12 |
| 141 nM | COc1ccc(C2C=C(NCCN(C)C)c3cc(F)ccc3N2)c(F)c1 (stereo not drawn) |
| 79.4 nM | COc1ccc(-c2cc(NCCN(C)C)c3cc(F)ccc3n2)cc1F |
| 2.69 nM | CN1CCN(c2ccc(-c3cc(N4CCN(C)CC4)c4ccccc4n3)cc2)CC1 |
| 120 nM | CN1CCN(Cc2cccc(-c3cc(NCCCN4CCCC4)c4ccccc4n3)c2)CC1 |
| 195 nM | Cc1cccc(-c2cc(NCCCN3CCCC3)c3ccccc3n2)c1 |
| 155 nM | CN(C)CCCNCc1cccc(-c2cc(NCCN3CCOCC3)c3ccccc3n2)c1 |
| 155 nM | CN(C)CCNc1cc(-c2ccc(C(F)(F)F)cc2)nc2ccccc12 |
| 9.12 nM | CN(C)CCNc1cc(-c2ccc3ccccc3c2)nc2ccccc12 |
| 316 nM | Oc1ccc(Nc2cc(-c3ccc4ccccc4c3)nc3ccccc23)cc1 |
| 3.72 nM | CN(C)CCCCNc1cc(-c2ccc3ccccc3c2)nc2ccccc12 |
| 0.24 nM | CN1CCN(Cc2cc(Nc3cc(-c4ccc5ccccc5c4)nc4ccccc34)cc(CN3CCN(C)CC3)c2O)CC1 |
| 5.89 nM | CN(C)CCCCCCNc1cc(-c2ccc3ccccc3c2)nc2ccccc12 |

Same assay, conditions: wehi

| Log EC50 | Structure (SMILES) |
| --- | --- |
| -8.26 and -7.76 | CN(C)CCCCNc1cc(-c2ccc(F)cc2)nc2ccccc12 |
